Test results: PMC4718804 (eLife, 2015)
Read-outs that look alike come from different tables or passages of the source.

Columns and labels:
NTD of recombinant NPC1 = conditions: cited from earlier work
Ebola virus [1] = conditions: cited from earlier work
[2] = tested on: transfer of LDL-derived cholesterol from lysosomes to ER in CHO-7 cells; type: cell-based, hamster
[3] = tested on: cholesterol esterification stimulated by 25-hydroxycholesterol; type: cell-based
[4] = tested on: lysosomal degradation of 125I-LDL in CHO-7 cells; type: cell-based, hamster
[5] = tested on: SREBP-2 cleavage in CHO-7 cells; type: cell-based, hamster
ER membranes = type: biochemical
NPC1 = NPC1 (Cricetulus griseus, UniProt Q9JLG3); type: binding, hamster
wild-type human NPC1 = wild-type human NPC1 (Homo sapiens, UniProt O15118); type: binding
Ebola virus [6] = type: cell-based
[7] = tested on: cholesterol egress from lysosomes; conditions: cited from earlier work
[8] = tested on: TR-4139 cells (CHO-7 cells stably expressing excess human NPC1); type: cell-based, hamster
NPC1L1 = NPC1L1 (Homo sapiens, UniProt Q9UHC9); type: binding
purified NPC1 = purified NPC1 (Homo sapiens, UniProt O15118); type: binding
[9] = read-out: Inhibitory constant (Ki): concentration inhibiting incorporation of [14C]oleate into cholesteryl [14C]oleate by 50%
[10] = read-out: Ki for inhibition of esterification of LDL-derived cholesterol

Sequence of NPC1 (Q9JLG3 23-1277 limits assumed): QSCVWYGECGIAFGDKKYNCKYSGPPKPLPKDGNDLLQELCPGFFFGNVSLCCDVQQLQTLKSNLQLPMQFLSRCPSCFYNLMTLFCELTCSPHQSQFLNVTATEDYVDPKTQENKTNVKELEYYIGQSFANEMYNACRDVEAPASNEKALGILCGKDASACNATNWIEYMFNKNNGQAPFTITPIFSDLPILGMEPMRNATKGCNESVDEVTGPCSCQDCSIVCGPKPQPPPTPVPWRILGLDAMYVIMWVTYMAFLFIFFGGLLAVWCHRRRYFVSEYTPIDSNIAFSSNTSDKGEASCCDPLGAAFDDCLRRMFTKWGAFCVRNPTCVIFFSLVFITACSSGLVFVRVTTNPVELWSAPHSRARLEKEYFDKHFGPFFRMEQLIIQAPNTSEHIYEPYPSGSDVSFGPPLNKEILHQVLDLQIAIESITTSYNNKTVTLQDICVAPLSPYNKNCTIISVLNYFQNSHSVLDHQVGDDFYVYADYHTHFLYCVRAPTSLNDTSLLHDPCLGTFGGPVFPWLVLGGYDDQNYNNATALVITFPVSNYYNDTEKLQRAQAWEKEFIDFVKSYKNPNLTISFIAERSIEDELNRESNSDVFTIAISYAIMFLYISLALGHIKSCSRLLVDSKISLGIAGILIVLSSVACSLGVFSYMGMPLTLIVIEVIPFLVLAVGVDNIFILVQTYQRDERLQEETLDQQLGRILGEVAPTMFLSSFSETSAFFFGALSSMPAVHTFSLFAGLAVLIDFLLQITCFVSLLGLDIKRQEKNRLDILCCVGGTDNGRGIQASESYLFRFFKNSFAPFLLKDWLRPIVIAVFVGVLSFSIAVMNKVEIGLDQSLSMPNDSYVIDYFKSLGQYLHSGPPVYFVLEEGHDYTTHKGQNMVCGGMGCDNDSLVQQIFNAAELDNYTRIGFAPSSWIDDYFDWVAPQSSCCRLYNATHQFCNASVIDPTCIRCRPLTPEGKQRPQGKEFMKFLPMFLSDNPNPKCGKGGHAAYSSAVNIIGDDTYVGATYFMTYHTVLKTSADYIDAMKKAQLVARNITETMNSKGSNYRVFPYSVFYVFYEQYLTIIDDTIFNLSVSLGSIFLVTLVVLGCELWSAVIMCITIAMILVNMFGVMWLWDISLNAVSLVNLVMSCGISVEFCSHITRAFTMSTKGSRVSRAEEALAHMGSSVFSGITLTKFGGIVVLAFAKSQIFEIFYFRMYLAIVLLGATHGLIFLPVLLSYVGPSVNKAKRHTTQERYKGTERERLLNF
Sequence of wild-type human NPC1 (O15118 23-1278): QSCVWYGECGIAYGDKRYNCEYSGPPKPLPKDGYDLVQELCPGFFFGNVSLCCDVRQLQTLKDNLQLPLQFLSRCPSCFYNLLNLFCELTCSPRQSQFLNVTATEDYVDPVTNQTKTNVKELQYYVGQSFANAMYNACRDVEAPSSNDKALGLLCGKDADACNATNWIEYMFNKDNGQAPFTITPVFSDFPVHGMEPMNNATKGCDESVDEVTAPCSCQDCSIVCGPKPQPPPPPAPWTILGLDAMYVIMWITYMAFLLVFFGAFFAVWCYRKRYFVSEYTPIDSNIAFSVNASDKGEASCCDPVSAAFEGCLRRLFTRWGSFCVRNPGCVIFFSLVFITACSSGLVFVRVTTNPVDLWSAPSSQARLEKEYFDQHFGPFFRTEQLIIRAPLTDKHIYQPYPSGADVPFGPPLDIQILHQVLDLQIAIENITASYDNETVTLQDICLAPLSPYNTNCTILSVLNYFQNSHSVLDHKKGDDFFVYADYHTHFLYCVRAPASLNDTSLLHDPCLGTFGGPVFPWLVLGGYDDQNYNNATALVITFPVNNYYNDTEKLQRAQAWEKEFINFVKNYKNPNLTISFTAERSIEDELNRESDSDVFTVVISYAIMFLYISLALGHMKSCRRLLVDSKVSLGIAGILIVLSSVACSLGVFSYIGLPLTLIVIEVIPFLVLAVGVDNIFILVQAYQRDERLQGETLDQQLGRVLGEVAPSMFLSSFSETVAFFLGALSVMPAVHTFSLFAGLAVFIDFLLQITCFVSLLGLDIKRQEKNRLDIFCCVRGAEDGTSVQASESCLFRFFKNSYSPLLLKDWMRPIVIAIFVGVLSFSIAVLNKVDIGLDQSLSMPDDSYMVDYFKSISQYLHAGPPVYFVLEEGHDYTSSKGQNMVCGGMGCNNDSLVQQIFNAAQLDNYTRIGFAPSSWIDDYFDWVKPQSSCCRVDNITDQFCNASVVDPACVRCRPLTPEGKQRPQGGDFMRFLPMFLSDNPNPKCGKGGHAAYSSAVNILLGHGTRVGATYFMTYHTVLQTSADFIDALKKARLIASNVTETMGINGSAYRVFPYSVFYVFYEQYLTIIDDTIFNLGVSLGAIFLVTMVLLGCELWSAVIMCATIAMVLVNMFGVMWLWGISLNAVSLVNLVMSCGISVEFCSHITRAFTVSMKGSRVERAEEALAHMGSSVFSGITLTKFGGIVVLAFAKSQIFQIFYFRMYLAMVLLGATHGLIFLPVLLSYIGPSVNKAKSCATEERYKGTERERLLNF
Sequence of purified NPC1 (O15118 23-1278): as above
Sequence of NPC1L1 (Q9UHC9 22-1359): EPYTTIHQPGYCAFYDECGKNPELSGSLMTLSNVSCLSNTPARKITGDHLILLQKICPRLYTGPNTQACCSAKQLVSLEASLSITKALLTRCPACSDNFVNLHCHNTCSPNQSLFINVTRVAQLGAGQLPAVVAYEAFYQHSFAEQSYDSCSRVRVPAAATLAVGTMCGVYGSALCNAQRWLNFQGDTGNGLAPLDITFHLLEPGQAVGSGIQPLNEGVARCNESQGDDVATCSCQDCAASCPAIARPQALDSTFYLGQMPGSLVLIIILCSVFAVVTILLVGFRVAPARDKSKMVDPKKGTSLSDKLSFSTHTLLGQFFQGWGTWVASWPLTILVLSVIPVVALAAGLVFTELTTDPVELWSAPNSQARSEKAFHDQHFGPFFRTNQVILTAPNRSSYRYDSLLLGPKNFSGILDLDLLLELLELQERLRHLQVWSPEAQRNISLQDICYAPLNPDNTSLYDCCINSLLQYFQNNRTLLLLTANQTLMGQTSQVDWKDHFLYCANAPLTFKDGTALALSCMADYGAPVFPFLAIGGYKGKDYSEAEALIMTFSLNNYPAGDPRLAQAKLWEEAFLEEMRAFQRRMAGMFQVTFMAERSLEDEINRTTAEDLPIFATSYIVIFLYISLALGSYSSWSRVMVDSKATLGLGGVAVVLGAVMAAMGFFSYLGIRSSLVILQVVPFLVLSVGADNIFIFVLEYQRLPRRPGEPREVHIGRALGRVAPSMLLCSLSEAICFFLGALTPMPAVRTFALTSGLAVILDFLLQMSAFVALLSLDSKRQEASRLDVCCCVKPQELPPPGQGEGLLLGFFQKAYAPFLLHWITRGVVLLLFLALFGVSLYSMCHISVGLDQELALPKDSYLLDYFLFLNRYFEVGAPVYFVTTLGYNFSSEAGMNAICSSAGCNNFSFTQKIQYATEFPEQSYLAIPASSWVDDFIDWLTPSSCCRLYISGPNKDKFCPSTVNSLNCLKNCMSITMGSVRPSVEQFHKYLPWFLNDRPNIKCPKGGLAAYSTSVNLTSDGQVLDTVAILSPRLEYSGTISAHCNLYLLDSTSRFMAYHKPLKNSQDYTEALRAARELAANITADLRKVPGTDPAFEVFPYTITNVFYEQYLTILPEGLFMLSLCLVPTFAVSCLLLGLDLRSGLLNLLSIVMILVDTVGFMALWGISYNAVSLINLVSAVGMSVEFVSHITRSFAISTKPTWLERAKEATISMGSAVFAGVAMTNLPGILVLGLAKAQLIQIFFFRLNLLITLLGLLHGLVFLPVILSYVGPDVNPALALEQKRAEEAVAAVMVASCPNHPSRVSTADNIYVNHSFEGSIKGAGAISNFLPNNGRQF

For `CCN(CC)CCOC1CCC2(C)C(=CCC3C4CCC(=O)C4(C)CCC32)C1` (stereo not drawn) [U18666A, 3-beta-[2-(diethylamino)ethoxy]androst-5-en-17-one, reference compound], the “effect on binding of [3H]25-hydroxycholesterol to the NTD of recombinant NPC1” value (NTD of recombinant NPC1) is given as “does not block binding”, the “concentrations of U18666A required to inhibit Ebola virus infection” value (Ebola virus [1]) is given as 3 to 12 µM and the “concentration at which transport of LDL-derived cholesterol from lysosomes to ER is inhibited (as low as)” value [2] is given as 0.03 µM. For the same molecule, the “effect on lysosomal exit of cholesterol (incorporation of [14C]oleate into cholesteryl [14C]oleate)” value [2] was “inhibited the lysosomal exit of cholesterol”, the Ki [2, 9] was 0.03 µM and the Ki [2, 10] was 0.02 µM. For the same molecule, the “effect on cholesterol esterification stimulated by 25-hydroxycholesterol” value [3] was “did not block”, the “effect on degradation of 125I-LDL (125I-monoiodotyrosine released into medium)” value (“effect on degradation of 125I-LDL” below) [4] was “did not inhibit degradation” and the “effect on the FCS-induced reduction of nuclear SREBP-2” value (shortened to “effect on the FCS-induced reduction”) [5] was “prevented this reduction”. For the same molecule, the “effect on cholesteryl [14C]oleate formation when cholesterol is added to ER membranes in vitro” value (ER membranes) was “does not inhibit”, the “competition of U-X crosslinking to NPC1, immunoprecipitation” value (shortened to “competition of U-X crosslinking to NPC1”) (NPC1) was “blocked” and the “competition of U-X crosslinking to the 190-kDa protein (NPC1), in-gel fluorescence” value (NPC1) was “disappeared”. For the same molecule, the pKa (physchem) was 9.41, the “competition of U-X crosslinking to transfected wild-type NPC1” value (wild-type human NPC1) was “competed” and the “fold higher concentration required for inhibition of Ebola than for inhibition of cholesterol export” value (Ebola virus [6]) was 100 fold. For the same molecule, the “fold more potent than imipramine” value [7] was “more than 100 fold”, the “rise of the threshold for U18666A inhibition by overexpression of NPC1” value [8] was “more than 100 fold” and the Ki [8, 10] was 2.7 µM.
For `CCN(CC)CCOC1CCCCC1` [compound E], the Ki [2, 9] was over 10 µM and the “competition of U-X crosslinking to NPC1” value (NPC1) was “not inhibited”.
With `C#CCOc1ccc(C(=O)c2ccc(C(=O)OCCN(CC)CCOC3CCC4(C)C(=CCC5C6CCC(=O)C6(C)CCC54)C3)cc2)cc1` (stereo not drawn) [U-X] the “crosslinking to NPC1L1” value (NPC1L1) was “did not crosslink”, the “effect on lysosomal exit of cholesterol (incorporation of [14C]oleate into cholesteryl [14C]oleate)” value [2] was “inhibited the lysosomal exit of cholesterol” and the Ki [2, 9] was 0.06 µM. The “crosslinking to purified NPC1” value (purified NPC1) was “unable to crosslink”, the “effect on degradation of 125I-LDL” value [4] was “did not inhibit degradation” and the “effect on the FCS-induced reduction” value [5] was “blocked”. The “crosslinking to NPC1” value (NPC1) was “crosslinks” and the “fluorescent NPC1 after UV crosslinking of U-X” value (wild-type human NPC1) was “detected”.
With `CCC(CC)CCOC1CCC2(C)C(=CCC3C4CCC(=O)C4(C)CCC32)C1` (stereo not drawn) [compound D] the Ki [2, 9] was 4.7 µM and the “competition of U-X crosslinking to NPC1” value (NPC1) was “not inhibited”.
In the case of `CCN(CC)CCCC(C)Nc1ccnc2cc(Cl)ccc12` (stereo not drawn) [chloroquine, reference compound], the “effect on release of LDL-derived cholesterol (cholesterol esterification)” value [2] is reported as “blocked” and the “effect on degradation of 125I-LDL” value [4] is reported as “blocked the degradation”.
In the case of `CCC(CC)CCOC1CCC2(C)C(=CCC3C2CCC2(C)C3CCC2N(C)C)C1` (stereo not drawn) [compound A], the “fold less active than U18666A in the cholesterol esterification assay” value [2] is reported as about 100 fold, the Ki [2, 9] is reported as 4.5 µM and the “effect on the FCS-induced reduction” value [5] is reported as “no activity”. For the same molecule, the “competition of U-X crosslinking to NPC1” value (NPC1) was “not inhibited”, the “competition of U-X crosslinking to the 190-kDa protein (NPC1), in-gel fluorescence” value (NPC1) was “not” and the pKa (physchem) was 10.2.
In the case of `CCCN(CCOC1CCC2(C)C(=CCC3C4CCC(=O)C4(C)CCC32)C1)Cc1cn(-c2cccnc2)nn1` (stereo not drawn) [compound B], the Ki [2, 9] is reported as 0.01 µM and the “competition of U-X crosslinking to NPC1” value (NPC1) is reported as “blocked”.
With `CCCN(CCOC1CCC2(C)C(=CCC3C4CCC(=O)C4(C)CCC32)C1)Cc1cn(CCCCCCOC(=O)CCCCC2SCC3NC(=O)NC32)nn1` (stereo not drawn) [compound C] the Ki [2, 9] was 0.02 µM and the “competition of U-X crosslinking to NPC1” value (NPC1) was “blocked”.
